Source: ChEMBL document CHEMBL1201862, “PubChem BioAssay data set” (2004)
Active and inactive are the calls of the source.

Assays:
[1] = target: Tyrosine-protein kinase ABL1 (Homo sapiens, UniProt P00519); format: functional
[2] = system: Streptococcus sp. 'group A'; assay: growth inhibition of control SK(-) GAS strain, dose response, counter-screen for streptokinase expression inhibitor project, luminescence, kanamycin, BacTiterGlo, confirmation (AID 1900); format: functional, organism-based
Streptokinase A = target: T1, Streptokinase A (Streptococcus pyogenes serotype M1, UniProt P10520); assay: S. pyogenes streptokinase expression inhibitors, potency, dose response, plasminogen activation absorbance, OD405 (AID 1914); format: functional, Streptococcus pyogenes M1 GAS;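 also: secreted streptokinase activity via plasminogen activation per viability signal from cell pellet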
T1 sequence (P10520 whole entry): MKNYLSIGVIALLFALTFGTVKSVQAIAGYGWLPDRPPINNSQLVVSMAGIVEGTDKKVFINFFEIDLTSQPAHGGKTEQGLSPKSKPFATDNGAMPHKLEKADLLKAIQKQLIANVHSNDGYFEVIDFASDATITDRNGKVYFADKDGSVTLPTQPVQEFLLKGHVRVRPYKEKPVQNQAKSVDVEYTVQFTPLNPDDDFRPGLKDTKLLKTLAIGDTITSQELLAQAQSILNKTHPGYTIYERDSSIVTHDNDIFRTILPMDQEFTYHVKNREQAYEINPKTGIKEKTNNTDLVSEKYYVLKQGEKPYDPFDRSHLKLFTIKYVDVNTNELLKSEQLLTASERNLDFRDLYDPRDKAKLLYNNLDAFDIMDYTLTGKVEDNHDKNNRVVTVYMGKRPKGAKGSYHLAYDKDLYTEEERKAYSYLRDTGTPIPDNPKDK

[3] = target: cGMP-dependent protein kinase 1 (Homo sapiens, UniProt Q13976); format: functional;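 also: value from a kinome panel screen with PRKG1 as the panel member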
[4] = target: Phosphorylase b kinase gamma catalytic chain, liver/testis isoform (Homo sapiens, UniProt P15735); format: functional;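 also: PHKG2 measured as one member of a kinome-wide kinase panel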
[5] = target: RAC-gamma serine/threonine-protein kinase (Homo sapiens, UniProt Q9Y243); format: functional
[6] = target: Serine/threonine-protein kinase PLK4 (Homo sapiens, UniProt O00444); format: functional;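 also: PLK4 measured as one member of a kinome-wide kinase profiling panel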
[7] = target: Serine/threonine-protein kinase D2 (Homo sapiens, UniProt Q9BZL6); format: functional;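 also: measured against PRKD2 as one member of a kinome-wide kinase profiling panel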
[8] = target: Ribosomal protein S6 kinase beta-1 (Homo sapiens, UniProt P23443); format: functional;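 also: measured as one member of a kinome-wide profiling panel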
[9] = target: Tyrosine-protein kinase SYK (Homo sapiens, UniProt P43405); format: functional
[10] = target: Testis-specific serine/threonine-protein kinase 2 (Homo sapiens, UniProt Q96PF2); format: functional;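 also: part of the Navigating the Kinome panel, target entry STK22B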
[11] = target: Serine/threonine-protein kinase Chk2 (Homo sapiens, UniProt O96017); format: functional;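 also: CHEK2 entry within a kinome-wide screening panel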
[12] = target: Rho-associated protein kinase 2 (Homo sapiens, UniProt O75116); format: functional
SRSF protein kinase 1 = SRSF protein kinase 1 (Homo sapiens, UniProt Q96SB4); format: functional;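 also: measured as one member of a kinome-wide kinase profiling panel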
[13] = target: Calcium/calmodulin-dependent protein kinase type II subunit delta (Homo sapiens, UniProt Q13557); format: functional
[14] = target: Casein kinase I isoform gamma-1 (Homo sapiens, UniProt Q9HCP0); format: functional;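 also: measured as the CSNK1G1 member of a kinome profiling panel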
[15] = target: Ribosomal protein S6 kinase alpha-5 (Homo sapiens, UniProt O75582); format: functional
[16] = target: Serine/threonine-protein kinase N2 (Homo sapiens, UniProt Q16513); format: functional
[17] = target: Homeodomain-interacting protein kinase 2 (Homo sapiens, UniProt Q9H2X6); format: functional;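 also: measured within a kinome-wide kinase profiling panel, HIPK2 being one panel member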
[18] = target: Serine/threonine-protein kinase pim-3 (Homo sapiens, UniProt Q86V86); format: functional;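 also: value obtained as one member of a broad kinase panel profiling effort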
[19] = target: Proto-oncogene tyrosine-protein kinase Src (Homo sapiens, UniProt P12931); format: functional;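 also: SRC entry within a kinome-wide kinase profiling panel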
[20] = target: Interleukin-1 receptor-associated kinase 4 (Homo sapiens, UniProt Q9NWZ3); format: functional
[21] = target: Serine/threonine-protein kinase pim-2 (Homo sapiens, UniProt Q9P1W9); format: functional;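 also: value comes from a broad kinase panel profiling study in which PIM2 was one of the panel members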
[22] = target: Fibroblast growth factor receptor 3 (Homo sapiens, UniProt P22607); format: functional
[23] = target: Serine/threonine-protein kinase MRCK alpha (Homo sapiens, UniProt Q5VT25); format: functional
[24] = target: Tyrosine-protein kinase FRK (Homo sapiens, UniProt P42685); format: functional;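 also: FRK tested as one member of a kinome panel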
[25] = target: Apoptotic protease-activating factor 1 (Homo sapiens, UniProt O14727); format: functional
[26] = target: Tyrosyl-DNA phosphodiesterase 2 (Homo sapiens, UniProt O95551); assay: human TDP2 enzyme inhibitors, dose response, biochemical, epi absorbance, IC50 (AID 743297)
Sequence of Tyrosyl-DNA phosphodiesterase 2 (O95551 whole entry): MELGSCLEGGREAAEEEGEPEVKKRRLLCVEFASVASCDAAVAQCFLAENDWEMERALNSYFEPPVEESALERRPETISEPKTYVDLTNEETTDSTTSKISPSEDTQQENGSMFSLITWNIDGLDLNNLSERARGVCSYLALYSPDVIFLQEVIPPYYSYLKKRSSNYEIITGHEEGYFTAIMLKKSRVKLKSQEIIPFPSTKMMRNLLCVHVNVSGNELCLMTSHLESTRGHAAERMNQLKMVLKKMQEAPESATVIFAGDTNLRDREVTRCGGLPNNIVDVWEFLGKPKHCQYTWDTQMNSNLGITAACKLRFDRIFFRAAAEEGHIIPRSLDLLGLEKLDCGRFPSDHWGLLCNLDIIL

Sequence of Serine/threonine-protein kinase MRCK alpha (Q5VT25 whole entry): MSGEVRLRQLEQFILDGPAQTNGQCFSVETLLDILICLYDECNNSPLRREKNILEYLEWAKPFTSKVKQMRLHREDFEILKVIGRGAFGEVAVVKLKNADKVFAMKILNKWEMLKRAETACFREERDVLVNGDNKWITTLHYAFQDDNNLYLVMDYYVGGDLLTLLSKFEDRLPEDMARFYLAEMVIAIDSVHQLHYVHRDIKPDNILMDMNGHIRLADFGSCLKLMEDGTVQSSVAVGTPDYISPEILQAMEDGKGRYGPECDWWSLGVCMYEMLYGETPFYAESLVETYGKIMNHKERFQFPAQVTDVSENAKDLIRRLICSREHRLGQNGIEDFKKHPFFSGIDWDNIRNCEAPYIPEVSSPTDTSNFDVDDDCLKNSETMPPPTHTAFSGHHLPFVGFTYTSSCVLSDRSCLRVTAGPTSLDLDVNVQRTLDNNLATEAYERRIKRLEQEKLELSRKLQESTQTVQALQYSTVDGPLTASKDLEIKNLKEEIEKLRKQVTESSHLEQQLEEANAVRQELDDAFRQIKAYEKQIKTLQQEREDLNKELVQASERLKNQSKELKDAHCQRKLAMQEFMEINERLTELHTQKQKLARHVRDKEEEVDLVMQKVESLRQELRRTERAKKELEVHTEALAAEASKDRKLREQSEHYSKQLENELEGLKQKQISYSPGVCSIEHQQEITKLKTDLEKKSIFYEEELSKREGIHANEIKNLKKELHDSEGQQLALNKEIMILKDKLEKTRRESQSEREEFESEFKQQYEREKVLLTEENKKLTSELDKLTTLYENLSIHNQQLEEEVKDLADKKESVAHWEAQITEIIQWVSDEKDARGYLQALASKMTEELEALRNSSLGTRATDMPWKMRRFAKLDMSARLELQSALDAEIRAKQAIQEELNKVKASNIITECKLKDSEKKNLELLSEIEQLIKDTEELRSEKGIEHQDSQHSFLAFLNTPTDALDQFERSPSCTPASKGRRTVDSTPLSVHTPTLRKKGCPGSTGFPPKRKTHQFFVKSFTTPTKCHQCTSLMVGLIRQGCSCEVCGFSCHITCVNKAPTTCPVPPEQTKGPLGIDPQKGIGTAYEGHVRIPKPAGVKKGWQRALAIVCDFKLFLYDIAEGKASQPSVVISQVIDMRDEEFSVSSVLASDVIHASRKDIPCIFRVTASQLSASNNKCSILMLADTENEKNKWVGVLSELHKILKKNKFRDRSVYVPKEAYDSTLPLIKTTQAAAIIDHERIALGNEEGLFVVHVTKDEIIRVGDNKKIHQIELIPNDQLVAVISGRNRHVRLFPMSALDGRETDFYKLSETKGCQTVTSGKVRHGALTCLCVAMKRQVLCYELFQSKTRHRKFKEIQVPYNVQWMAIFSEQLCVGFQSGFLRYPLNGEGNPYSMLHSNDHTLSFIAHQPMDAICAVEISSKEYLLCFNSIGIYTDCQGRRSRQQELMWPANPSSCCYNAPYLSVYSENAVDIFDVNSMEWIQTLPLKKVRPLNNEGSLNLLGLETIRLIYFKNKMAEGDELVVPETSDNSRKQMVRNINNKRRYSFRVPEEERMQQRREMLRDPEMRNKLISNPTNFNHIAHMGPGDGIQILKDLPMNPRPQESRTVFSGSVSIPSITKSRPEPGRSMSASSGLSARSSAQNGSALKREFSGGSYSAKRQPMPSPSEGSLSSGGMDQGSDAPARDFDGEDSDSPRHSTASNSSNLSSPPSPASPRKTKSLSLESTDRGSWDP
Sequence of Calcium/calmodulin-dependent protein kinase type II subunit delta (Q13557 whole entry, canonical isoform): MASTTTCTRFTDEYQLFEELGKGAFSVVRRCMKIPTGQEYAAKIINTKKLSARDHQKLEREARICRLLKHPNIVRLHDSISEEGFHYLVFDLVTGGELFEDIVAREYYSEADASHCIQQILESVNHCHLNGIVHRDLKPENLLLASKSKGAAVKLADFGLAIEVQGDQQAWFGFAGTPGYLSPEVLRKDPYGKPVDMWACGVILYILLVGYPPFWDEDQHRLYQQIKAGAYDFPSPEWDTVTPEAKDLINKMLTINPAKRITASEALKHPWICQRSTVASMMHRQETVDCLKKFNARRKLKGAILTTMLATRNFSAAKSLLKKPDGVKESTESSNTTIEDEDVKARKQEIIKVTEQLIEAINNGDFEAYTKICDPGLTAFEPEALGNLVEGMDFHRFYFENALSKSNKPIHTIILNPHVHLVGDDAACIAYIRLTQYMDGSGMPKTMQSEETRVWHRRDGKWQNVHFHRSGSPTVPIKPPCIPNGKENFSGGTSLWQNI
Sequence of Rho-associated protein kinase 2 (O75116 whole entry): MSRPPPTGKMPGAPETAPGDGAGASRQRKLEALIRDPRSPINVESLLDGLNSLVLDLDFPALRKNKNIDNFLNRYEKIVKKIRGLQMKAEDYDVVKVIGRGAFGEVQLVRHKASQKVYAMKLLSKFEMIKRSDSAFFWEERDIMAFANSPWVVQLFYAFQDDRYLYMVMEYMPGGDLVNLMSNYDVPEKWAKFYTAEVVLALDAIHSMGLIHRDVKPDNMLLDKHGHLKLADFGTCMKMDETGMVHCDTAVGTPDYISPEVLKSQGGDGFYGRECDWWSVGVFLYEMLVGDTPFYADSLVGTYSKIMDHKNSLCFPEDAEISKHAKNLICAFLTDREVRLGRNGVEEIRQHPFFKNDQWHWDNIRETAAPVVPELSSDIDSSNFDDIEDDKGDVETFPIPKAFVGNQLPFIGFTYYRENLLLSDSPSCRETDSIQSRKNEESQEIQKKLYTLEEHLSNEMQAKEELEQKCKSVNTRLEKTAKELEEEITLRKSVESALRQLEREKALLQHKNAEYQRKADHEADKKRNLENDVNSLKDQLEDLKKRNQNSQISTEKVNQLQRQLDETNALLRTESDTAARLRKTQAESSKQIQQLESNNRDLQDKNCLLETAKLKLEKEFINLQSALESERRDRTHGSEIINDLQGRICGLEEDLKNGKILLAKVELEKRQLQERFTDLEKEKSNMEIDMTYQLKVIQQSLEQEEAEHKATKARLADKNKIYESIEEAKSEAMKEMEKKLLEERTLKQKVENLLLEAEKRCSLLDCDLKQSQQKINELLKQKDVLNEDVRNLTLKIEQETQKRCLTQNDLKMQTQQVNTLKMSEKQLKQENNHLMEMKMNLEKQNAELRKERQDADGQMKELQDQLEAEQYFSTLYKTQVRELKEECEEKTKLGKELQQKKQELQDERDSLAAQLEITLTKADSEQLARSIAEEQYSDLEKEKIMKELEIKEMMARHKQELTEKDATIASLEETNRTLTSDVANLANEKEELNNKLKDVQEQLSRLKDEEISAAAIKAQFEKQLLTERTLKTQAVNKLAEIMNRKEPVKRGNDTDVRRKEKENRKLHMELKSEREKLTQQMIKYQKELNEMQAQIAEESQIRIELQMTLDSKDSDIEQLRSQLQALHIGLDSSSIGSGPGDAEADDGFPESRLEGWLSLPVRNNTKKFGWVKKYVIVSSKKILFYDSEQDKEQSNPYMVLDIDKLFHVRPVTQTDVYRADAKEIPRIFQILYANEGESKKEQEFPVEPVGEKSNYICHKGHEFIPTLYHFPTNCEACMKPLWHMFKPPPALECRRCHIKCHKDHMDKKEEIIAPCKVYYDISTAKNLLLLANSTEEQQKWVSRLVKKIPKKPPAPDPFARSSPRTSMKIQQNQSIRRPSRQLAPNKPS
Sequence of Serine/threonine-protein kinase pim-2 (Q9P1W9 whole entry): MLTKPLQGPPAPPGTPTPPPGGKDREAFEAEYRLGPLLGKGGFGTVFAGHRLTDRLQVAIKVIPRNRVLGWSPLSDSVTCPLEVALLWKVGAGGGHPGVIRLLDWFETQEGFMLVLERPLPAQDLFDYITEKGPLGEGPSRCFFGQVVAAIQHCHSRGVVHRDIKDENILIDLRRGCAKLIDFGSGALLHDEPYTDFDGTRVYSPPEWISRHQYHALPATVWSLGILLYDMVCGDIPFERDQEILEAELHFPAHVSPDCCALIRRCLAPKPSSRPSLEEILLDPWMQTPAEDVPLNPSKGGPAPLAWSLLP
Sequence of Fibroblast growth factor receptor 3 (P22607 whole entry): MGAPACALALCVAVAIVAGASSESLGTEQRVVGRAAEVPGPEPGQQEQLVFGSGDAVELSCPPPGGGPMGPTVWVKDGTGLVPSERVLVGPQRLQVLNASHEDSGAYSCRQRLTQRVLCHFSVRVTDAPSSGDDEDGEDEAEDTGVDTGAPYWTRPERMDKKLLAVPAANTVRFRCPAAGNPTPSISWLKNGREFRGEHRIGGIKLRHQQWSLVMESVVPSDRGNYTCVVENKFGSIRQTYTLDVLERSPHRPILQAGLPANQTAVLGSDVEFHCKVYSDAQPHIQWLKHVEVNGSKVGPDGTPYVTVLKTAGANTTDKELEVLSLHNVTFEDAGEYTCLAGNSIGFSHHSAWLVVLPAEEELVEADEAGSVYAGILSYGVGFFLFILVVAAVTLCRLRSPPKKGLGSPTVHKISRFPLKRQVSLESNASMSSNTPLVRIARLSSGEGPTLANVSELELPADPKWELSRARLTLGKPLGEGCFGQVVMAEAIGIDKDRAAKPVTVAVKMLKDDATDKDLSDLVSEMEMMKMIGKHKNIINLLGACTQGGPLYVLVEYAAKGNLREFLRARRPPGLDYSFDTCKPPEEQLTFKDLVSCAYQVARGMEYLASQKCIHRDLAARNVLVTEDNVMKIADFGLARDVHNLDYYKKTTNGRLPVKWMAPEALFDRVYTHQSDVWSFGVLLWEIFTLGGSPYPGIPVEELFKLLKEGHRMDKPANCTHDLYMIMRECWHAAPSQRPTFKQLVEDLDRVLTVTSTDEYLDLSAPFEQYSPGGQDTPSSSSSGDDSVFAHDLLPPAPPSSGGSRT

COc1ccc(C2=NNc3cccc4c(OC)ccc2c34)cc1OC
Ki [1]: > 2.51 µM (inactive)

CC(/C=C1\SC(=S)N(NS(=O)(=O)c2ccc(C)cc2)C1=O)=C\c1ccccc1
EC50 [2]: 1.41 µM (active)
EC50 (Streptokinase A): > 150 µM (not active)

CN1CCC(c2c(O)cc(O)c3c(=O)cc(-c4ccccc4Cl)oc23)C(O)C1 (stereo not given)
Ki [3]: > 2 µM (inactive)
Ki [4]: > 5.01 µM (inactive)
Ki [5]: > 10 µM (inactive)
Ki [6]: 3.16 µM (active)
Ki [7]: 1.26 µM (active)
Ki [8]: > 6.31 µM (inactive)
Ki [9]: 0.794 µM (active)
Ki [10]: > 1.58 µM (inactive)
Ki [11]: > 1.58 µM (inactive)
Ki [12]: > 6.31 µM (inactive)
Ki (SRSF protein kinase 1): 0.501 µM (active)
Ki [13]: 2 µM (active)
pKi [13]: 5.7
Ki [14]: > 6.31 µM (inactive)
Ki [15]: > 2 µM (inactive)
Ki [16]: 5.01 µM (active)
Ki [17]: > 3.98 µM (inactive)
Ki [18]: 1.26 µM (active)
Ki [19]: > 2 µM (inactive)
Ki [20]: 5.01 µM (active)
Ki [21]: 1 µM (active)
Ki [22]: > 2 µM (inactive)
Ki [23]: 0.631 µM (active)
pKi [23]: 6.2
Ki [24]: > 2.51 µM (inactive)

Cc1ccc(NC2=C(NCCO)C(=O)c3ccccc3C2=O)cc1
IC50 [25]: 15.7 µM (active)
IC50 [26]: 65.1 µM (inactive)
